The source made the active and inactive calls.
Tests used:
[1] = target: T1, Tyrosine-protein phosphatase non-receptor type 7 (Homo sapiens, UniProt P35236); type: functional
T1 sequence (P35236 whole entry): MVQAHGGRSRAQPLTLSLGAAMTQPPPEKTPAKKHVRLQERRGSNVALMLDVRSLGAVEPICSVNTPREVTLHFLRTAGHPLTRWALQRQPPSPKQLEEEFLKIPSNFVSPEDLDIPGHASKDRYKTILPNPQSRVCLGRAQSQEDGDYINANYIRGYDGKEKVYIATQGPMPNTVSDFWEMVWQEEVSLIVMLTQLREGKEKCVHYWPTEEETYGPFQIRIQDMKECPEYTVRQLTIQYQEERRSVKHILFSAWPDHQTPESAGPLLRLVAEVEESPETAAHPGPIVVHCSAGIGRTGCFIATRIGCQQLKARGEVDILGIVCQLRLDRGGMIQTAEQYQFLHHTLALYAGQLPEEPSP

[2] = target: T2, Tyrosine-protein phosphatase non-receptor type 22 (Homo sapiens, UniProt Q9Y2R2); type: functional
T2 sequence (Q9Y2R2 whole entry): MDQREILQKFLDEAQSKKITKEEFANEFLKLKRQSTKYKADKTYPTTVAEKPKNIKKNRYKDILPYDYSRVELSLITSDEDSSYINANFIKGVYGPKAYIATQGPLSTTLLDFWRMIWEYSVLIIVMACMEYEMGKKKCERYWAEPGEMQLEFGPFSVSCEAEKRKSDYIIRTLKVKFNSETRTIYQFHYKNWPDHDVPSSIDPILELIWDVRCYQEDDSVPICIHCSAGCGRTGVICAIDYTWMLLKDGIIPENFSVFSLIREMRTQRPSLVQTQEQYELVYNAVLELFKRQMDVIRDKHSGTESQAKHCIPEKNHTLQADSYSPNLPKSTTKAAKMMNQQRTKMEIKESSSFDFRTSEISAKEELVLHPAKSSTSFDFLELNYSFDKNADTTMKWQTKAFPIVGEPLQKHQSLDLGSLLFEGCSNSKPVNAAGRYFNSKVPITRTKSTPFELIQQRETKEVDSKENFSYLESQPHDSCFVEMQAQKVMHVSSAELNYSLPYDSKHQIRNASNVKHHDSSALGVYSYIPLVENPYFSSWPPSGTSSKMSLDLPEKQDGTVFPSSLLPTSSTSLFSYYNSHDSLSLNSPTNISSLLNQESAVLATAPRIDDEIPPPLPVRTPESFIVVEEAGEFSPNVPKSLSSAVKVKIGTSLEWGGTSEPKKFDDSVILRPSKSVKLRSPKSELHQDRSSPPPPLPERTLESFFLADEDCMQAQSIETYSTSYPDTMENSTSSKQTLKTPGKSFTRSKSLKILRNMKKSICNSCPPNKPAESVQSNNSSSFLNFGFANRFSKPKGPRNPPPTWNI

[3] = target: T2, Tyrosine-protein phosphatase non-receptor type 22; type: functional; remark: listed apart in the source
[4] = (§1) Late stage assay provider results from the probe development effort to identify inhibitors of Protein Phosphatase Methylesterase 1 (PME-1): luminescence-based biochemical dose response assay to determine cytotoxicity of inhibitor compounds. [Related pubchem assays (depositor defined):AID2130, AID2143, AID2171, AID2174, AID2177, AID2232, AID2233, AID2291, AID2363, AID2365, AID2366, AID2368, AID2369, AID2371, AID463124, AID463130, AID463131, AID463132, AID463146, AID463149] Panel member name: Fetal Calf Serum; type: toxicity
[5] = as §1, with “Serum-free Media” for “Fetal Calf Serum”; type: toxicity
H9c2 = assay: cells; type: functional, cell-based; settings: Rattus norvegicus, H9c2, Myocardium;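 also: confirmatory concentration-response retest of ultra-high-throughput screening hits for modulation of myocardial damage; cell death induced by hydrogen peroxide oxidative stress; compound pretreatment for 60 min then peroxide exposure for 2 h; potency is for protecting the cells against peroxide damage rather than for killing them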
Fatty acid synthase [6] = target: T3, Fatty acid synthase (Homo sapiens, UniProt P49327); assay: FAS thioesterase domain inhibitors, dose response, biochemical, endpoint fluorescence intensity, uHTS hits (AID 624327); type: functional;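 also: fluorescence from hydrolysis of an O-methyl fluorescein acyl ester substrate by the enzyme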
T3 sequence (P49327 whole entry, the tested form may be a part): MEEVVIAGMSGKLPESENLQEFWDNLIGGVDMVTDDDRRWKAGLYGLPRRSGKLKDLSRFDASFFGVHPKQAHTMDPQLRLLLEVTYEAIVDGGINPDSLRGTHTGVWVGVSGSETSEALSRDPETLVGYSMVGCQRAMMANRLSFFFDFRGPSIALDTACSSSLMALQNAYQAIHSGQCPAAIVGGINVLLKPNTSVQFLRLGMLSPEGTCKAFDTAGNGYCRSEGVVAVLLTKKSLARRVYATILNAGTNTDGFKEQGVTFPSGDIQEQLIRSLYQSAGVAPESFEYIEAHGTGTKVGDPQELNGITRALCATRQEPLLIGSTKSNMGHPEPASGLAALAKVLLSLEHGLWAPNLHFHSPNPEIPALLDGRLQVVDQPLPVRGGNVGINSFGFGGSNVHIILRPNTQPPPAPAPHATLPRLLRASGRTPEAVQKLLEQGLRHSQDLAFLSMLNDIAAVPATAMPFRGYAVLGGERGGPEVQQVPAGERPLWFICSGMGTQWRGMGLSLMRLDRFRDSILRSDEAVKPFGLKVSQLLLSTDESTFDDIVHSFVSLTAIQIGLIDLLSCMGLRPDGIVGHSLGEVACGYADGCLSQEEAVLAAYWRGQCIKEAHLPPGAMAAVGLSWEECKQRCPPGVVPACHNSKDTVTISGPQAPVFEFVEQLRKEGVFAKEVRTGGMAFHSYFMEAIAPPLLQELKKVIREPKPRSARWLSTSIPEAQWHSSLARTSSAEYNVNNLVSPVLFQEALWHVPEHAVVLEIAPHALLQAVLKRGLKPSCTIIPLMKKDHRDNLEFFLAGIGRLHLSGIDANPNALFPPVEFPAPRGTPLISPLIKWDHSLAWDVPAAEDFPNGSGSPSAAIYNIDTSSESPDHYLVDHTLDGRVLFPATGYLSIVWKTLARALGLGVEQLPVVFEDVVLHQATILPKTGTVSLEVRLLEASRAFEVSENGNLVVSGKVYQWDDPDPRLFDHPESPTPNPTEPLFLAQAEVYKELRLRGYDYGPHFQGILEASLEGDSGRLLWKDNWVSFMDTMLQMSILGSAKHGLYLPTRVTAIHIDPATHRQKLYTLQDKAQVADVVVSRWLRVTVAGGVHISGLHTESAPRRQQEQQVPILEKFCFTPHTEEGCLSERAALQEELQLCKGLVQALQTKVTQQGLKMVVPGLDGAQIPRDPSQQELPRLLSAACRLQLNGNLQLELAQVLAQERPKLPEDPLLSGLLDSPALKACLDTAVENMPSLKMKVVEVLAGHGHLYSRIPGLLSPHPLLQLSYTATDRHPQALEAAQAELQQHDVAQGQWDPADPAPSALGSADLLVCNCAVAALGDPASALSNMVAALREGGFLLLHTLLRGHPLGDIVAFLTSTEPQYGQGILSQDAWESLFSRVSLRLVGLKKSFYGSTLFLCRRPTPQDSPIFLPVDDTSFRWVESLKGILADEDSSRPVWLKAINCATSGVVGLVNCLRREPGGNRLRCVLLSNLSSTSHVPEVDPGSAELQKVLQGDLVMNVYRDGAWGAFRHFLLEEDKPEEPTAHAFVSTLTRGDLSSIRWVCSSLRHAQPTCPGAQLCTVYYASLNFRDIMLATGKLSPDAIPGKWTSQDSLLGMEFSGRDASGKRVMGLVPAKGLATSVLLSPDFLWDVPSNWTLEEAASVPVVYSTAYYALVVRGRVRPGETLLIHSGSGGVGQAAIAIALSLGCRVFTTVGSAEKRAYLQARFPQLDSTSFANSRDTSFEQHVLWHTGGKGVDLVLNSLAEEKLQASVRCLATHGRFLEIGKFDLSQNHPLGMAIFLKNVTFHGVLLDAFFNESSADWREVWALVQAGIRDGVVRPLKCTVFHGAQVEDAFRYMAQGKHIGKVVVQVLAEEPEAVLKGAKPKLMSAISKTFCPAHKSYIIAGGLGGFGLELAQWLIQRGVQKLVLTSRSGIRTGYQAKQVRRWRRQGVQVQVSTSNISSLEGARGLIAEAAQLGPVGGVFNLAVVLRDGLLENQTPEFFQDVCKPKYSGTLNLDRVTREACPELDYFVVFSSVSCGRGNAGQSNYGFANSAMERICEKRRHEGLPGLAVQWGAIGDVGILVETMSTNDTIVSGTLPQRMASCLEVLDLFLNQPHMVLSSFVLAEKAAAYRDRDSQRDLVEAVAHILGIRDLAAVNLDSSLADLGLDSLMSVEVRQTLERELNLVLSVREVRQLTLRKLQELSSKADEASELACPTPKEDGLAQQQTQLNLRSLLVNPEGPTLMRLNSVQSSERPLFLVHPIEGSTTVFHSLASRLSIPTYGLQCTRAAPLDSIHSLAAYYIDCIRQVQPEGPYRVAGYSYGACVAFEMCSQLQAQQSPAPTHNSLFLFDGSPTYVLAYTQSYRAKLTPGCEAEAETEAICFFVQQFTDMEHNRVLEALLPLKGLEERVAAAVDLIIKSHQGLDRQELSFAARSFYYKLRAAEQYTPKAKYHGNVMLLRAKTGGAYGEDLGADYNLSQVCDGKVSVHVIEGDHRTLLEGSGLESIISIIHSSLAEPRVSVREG

Fatty acid synthase [7] = target: T3, Fatty acid synthase; assay: FAS thioesterase domain inhibitors, dose response, biochemical, kinetic fluorescence intensity (AID 624326); type: functional;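 also: rate of fluorescence rise from hydrolysis of a fluorogenic O-methyl fluorescein ester substrate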
[8] = Luminescence Cell-Based Dose Confirmation HTS to Identify Activators of 5'UTR Stem-Loop Driven Alpha-Synuclein mRNA Translation in H4 Neuroglioblastoma Cells. [Related pubchem assays: 1829 (Project Summary), 1814 (Primary HTS)]; type: functional
[9] = Luminescence Cell-Based Dose Response HTS to Identify Activators of Luciferase Translation or Activity in H4 […] Cells. [Related pubchem assays: 1829 (Project Summary), 1814 (Primary HTS)]; type: functional
H4 = assay: Luminescence Cell-Based Dose Response HTS to Identify Activators of 5'UTR Stem-Loop Driven Prion Protein mRNA Translation in H4 Neuroglioblastoma Cells. [Related pubchem assays: 1829 (Project Summary), 1814 (Primary HTS)]; type: functional; settings: Homo sapiens
[10] = target: T4, Kappa-type opioid receptor (Homo sapiens, UniProt P41145); type: functional
T4 sequence (P41145 whole entry): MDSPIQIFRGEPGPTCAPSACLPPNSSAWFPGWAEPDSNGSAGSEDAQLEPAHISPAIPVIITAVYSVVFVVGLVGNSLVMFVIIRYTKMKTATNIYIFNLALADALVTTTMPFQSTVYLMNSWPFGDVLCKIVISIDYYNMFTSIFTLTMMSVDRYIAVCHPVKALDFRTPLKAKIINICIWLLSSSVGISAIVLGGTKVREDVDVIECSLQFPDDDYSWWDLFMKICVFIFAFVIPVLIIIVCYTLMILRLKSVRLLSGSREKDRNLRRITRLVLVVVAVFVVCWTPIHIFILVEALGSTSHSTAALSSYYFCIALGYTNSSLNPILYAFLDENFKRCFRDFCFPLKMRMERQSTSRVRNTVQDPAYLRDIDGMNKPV

Beta-galactosidase = Beta-galactosidase (Escherichia coli, UniProt Q8VNN2); type: functional
[11] = target: T4, Kappa-type opioid receptor; type: functional; remark: listed apart in the source
Mu-type opioid receptor [12] = target: T5, Mu-type opioid receptor (Homo sapiens, UniProt P35372); assay: MOR agonists by imaging, SAR follow-up, image-based (AID 2352); type: functional
[13] = target: T6, Delta-type opioid receptor (Homo sapiens, UniProt P41143); assay: DOR agonists, SAR follow-up, image-based (AID 2370); type: functional
T6 sequence (P41143 whole entry): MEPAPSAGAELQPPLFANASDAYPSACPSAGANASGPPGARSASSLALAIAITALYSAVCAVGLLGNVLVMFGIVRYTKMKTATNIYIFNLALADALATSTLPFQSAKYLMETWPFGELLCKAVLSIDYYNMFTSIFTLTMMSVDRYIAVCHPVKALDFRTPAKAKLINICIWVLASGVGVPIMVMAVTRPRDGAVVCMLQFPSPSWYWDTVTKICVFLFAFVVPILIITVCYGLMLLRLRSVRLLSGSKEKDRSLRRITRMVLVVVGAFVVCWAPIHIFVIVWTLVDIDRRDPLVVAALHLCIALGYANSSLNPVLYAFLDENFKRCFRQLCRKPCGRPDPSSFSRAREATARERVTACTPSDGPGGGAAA

[14] = target: T4, Kappa-type opioid receptor; assay: KOR antagonists by imaging, SAR follow-up, image-based (AID 2348); type: functional
Mu-type opioid receptor [15] = target: T5, Mu-type opioid receptor; assay: MOR antagonists, SAR follow-up, image-based (AID 2420); type: functional;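 also: compounds added before stimulation of receptor with agonist DAMGO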
[16] = target: T4, Kappa-type opioid receptor; assay: KOR agonist analogs, imaging readout, SAR follow-up, image-based (AID 2359); type: functional
[17] = target: T6, Delta-type opioid receptor; assay: DOR antagonists, SAR follow-up, image-based (AID 2357); type: functional
[18] = target: T4, Kappa-type opioid receptor; assay: kappa opioid receptor blockers, cell-based, luminescence, beta-arrestin, SAR follow-up (AID 2285); type: functional
[19] = target: T7, G-protein coupled receptor 55 (Homo sapiens, UniProt Q9Y2T6); assay: GPR55 antagonists blocking LPI-driven arrestin recruitment, primary screen, imaging, U2OS, beta-arrestin-GFP, LPI agonist (AID 2013); type: functional;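 also: antagonist potency measured as reduced agonist-driven arrestin aggregation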
T7 sequence (Q9Y2T6 whole entry): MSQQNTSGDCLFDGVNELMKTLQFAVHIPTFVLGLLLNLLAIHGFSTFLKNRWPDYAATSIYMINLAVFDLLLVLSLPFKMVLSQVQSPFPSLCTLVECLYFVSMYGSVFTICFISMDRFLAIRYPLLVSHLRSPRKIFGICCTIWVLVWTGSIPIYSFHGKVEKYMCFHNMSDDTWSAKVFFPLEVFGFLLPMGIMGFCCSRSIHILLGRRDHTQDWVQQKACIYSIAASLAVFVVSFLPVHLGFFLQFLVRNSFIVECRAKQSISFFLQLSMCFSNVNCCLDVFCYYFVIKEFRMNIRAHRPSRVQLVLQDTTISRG

Cannabinoid receptor 1 [20] = target: T8, Cannabinoid receptor 1 (Homo sapiens, UniProt P21554); assay: SAR analysis of antagonists of the Cannabinoid Receptor 1 using an Image-Based Assay - Set 2. [Related pubchem assays (depositor defined):AID2013, AID2026]; type: functional
T8 sequence (P21554 whole entry): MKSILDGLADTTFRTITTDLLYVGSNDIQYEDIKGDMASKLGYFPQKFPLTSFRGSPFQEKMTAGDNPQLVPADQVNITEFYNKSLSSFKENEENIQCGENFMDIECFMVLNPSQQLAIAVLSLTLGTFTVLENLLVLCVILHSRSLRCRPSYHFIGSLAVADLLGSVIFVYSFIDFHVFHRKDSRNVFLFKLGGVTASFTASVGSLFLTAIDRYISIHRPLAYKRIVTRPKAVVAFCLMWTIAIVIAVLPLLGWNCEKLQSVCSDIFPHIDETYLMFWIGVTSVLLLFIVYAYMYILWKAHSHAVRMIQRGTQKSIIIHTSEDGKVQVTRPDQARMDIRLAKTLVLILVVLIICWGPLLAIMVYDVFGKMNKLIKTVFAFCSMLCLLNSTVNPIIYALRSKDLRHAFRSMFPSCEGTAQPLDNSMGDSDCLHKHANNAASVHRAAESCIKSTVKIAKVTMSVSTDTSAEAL

[21] = target: T9, G-protein coupled receptor 35 (Homo sapiens, UniProt Q9HC97); assay: SAR analysis of Agonists of the GPR35 Receptor using an Image-Based Assay - Set 2. [Related pubchem assays (depositor defined):AID2013, AID2026]; type: functional
T9 sequence (Q9HC97 whole entry): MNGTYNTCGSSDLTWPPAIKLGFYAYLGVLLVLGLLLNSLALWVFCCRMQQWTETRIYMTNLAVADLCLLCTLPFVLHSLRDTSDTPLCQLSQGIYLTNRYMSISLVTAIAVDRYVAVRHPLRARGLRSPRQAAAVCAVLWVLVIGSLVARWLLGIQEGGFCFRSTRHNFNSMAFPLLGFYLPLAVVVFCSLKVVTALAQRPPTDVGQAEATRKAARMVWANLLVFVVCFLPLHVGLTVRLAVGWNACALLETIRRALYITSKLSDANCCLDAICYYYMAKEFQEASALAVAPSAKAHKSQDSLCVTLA

Cannabinoid receptor 2 [22] = target: T10, Cannabinoid receptor 2 (Homo sapiens, UniProt P34972); assay: SAR analysis of antagonists of the Cannabinoid Receptor 2 using an Image-Based Assay. [Related pubchem assays (depositor defined):AID2013, AID2026]; type: functional
T10 sequence (P34972 whole entry): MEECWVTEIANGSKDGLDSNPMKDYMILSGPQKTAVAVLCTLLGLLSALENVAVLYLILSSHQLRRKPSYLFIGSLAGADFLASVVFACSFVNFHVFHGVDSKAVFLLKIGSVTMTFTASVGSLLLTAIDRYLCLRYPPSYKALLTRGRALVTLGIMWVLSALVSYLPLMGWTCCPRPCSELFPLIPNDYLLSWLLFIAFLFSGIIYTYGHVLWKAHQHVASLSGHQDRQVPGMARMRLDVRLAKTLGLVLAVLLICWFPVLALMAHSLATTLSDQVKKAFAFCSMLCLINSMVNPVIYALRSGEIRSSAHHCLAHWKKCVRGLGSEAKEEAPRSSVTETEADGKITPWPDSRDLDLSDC

Cannabinoid receptor 1 [23] = target: T8, Cannabinoid receptor 1; assay: SAR analysis of agonists of the Cannabinoid Receptor 1 using an Image-Based Assay - Set 2. [Related pubchem assays (depositor defined):AID2013, AID2026]; type: functional
[24] = target: T9, G-protein coupled receptor 35; assay: SAR analysis of Antagonists of the GPR35 Receptor using an Image-Based Assay - Set 3. [Related pubchem assays (depositor defined):AID2013, AID2026]; type: functional
[25] = target: T7, G-protein coupled receptor 55; assay: GPR55 antagonist potency of analogs, SAR follow-up, imaging, U2OS, beta-arrestin-GFP, LPI agonist, set 2 (AID 2820); type: functional
Cannabinoid receptor 2 [26] = target: T10, Cannabinoid receptor 2; assay: SAR analysis of agonists of the Cannabinoid Receptor 2 using an Image-Based Assay. [Related pubchem assays (depositor defined):AID2013, AID2026]; type: functional

For `Cc1ccc2nc(O)cc(C(=O)OCC(=O)c3ccccc3)c2c1`, the IC50 [1] was > 79.4 µM (inactive), the IC50 [2] was > 79.4 µM (inactive) and the IC50 [3] was > 79.4 µM (inactive).
For `COC(=O)N1C(=O)[C@](c2ccccc2)(C2CCCCC2)N1C(=O)OC`, the CC50 [4] was > 10 µM (inactive), the CC50 [5] was > 10 µM (inactive) and the IC50 (H9c2) was 25.5 µM (active). The IC50 (Fatty acid synthase [6]) was 0.929 µM (active) and the IC50 (Fatty acid synthase [7]) was 0.968 µM (active).
With `Cc1ccc(CN2C3CCCC2CC(NC(=O)c2ccc(C)cc2)C3)cc1` (centres undefined) the EC50 [8] was > 120 µM (not active), the EC50 [9] was > 120 µM (not active) and the EC50 (H4) was > 120 µM (not active). The IC50 [10] was 2.62 µM (active), the EC50 (Beta-galactosidase) was > 31.5 µM (inactive) and the IC50 [11] was 0.824 µM. For the same compound, the EC50 (Mu-type opioid receptor [12]) was > 32 µM (inactive), the EC50 [13] was > 32 µM (inactive) and the IC50 [14] was > 32 µM (inactive). For the same compound, the IC50 (Mu-type opioid receptor [15]) was > 32 µM (inactive), the EC50 [16] was > 32 µM (inactive) and the IC50 [17] was > 32 µM (inactive). For the same compound, the IC50 [18] was 3.28 µM (active).
With `Cc1cccn2c(=O)c3cc(C(=O)NCc4ccco4)c(=N)n(C4CCCC4)c3nc12` the IC50 [19] was 1.68 µM (active), the IC50 (Cannabinoid receptor 1 [20]) was > 32 µM (inactive) and the EC50 [21] was > 32 µM (inactive). For the same compound, the IC50 (Cannabinoid receptor 2 [22]) was > 32 µM (inactive), the EC50 (Cannabinoid receptor 1 [23]) was > 32 µM (inactive) and the IC50 [24] was > 32 µM (inactive). For the same compound, the IC50 [25] was 0.407 µM (active) and the EC50 (Cannabinoid receptor 2 [26]) was > 32 µM (inactive).

Reference: ChEMBL document CHEMBL1201862, “PubChem BioAssay data set” (2004)
